The values below come from US20030134774A1, “Methods for inhibiting cardiac disorders” (priority 2001, published 2003).

One assay addresses T1, PKC-ε (Rattus norvegicus, UniProt P09216).
T1 construct: PKCε is detected as a single band in quiescent cardiomyocytes; endogenous in cells; host or cells: cultured neonatal rat ventricular cardiomyocytes
T1 sequence (P09216 1-737): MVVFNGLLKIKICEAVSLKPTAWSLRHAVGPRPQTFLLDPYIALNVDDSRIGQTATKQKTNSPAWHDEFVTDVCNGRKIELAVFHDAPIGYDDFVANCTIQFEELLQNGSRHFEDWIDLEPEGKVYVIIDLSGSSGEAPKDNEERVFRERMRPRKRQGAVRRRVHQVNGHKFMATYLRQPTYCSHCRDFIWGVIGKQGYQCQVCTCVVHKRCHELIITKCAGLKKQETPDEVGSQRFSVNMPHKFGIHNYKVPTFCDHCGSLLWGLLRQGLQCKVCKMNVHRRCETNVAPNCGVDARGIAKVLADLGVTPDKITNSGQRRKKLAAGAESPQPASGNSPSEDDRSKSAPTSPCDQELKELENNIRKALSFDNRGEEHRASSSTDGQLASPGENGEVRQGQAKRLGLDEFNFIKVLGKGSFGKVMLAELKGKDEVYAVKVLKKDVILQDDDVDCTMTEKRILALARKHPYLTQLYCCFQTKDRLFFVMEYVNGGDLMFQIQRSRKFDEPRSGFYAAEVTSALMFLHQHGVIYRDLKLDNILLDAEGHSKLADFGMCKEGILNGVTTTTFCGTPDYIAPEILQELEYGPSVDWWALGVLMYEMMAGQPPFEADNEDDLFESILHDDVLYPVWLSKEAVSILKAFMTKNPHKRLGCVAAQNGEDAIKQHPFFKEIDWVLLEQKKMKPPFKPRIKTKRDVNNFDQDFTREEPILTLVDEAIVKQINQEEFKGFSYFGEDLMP
Briefly: Western blot with anti-phospho-PKC antibody in cardiomyocytes. The format is cell-based. On the procedure: rPMT selectively activates nPKC isoforms. Cardiomyocyte cultures were incubated in culture medium without or with NE (10 μM), rPMT (400 ng/ml) or PMA (100 nM) for 24 hr (Panels A and C) or 5 min (Panel B). Soluble extracts were prepared and separated by SDS-PAGE followed by immunodetection of total PKC isoform abundance with antibodies that are specific for the individual PKC isoforms (Panel A), or phosphorylated forms of PKC (largely PKCε) with a pan-phospho-PKC antibody (Panels B and C), as described in Methods below. GF109203 was included at 5 μM 30 min prior to stimulation as indicated.
(§1) Specific immunoreactivity for individual PKC isoforms was quantified according to methods described previously. For assays of MAPKs and AKT, cells were exposed to test agents as indicated in individual experimental protocols, washed three times with ice-cold calcium/magnesium-free Dulbecco's PBS (pH 7.1), scraped into ice-cold extraction buffer [20 mM β-glycerophosphate pH 7.5, 20 mM sodium fluoride, 2 mM EDTA, 0.2 mM sodium vanadate, 10 μg/ml aprotinin, 25 μg/ml leupeptin, 50 μg/ml PMSF, and 0.3% (v/v) β-mercaptoethanol], lysed by sonication, and centrifuged at 10,000 g for 10 min at 4° C. The supernatant was diluted in SDS-PAGE sample buffer, boiled for 5 min, and stored at −70° C. Western blot analysis was performed with antibodies that are selective for the phosphorylated (activated) forms of ERK1/2, p38-MAPK, JNK, AKT, and pan-PKC according to manufacturer's instructions. For each panel in each Figure, the results are from a single gel exposed for a uniform duration. Bands were detected by enhanced chemiluminescence and blots were quantified by laser scanning densitometry.
A general note: Immunoblotting shows a protein as a band on a membrane.

In a further assay the test system is AKT. Briefly: Phospho-AKT and total AKT Western blot in cardiomyocytes. The format is cell-based, rat. The procedure:
rPMT decreases basal AKT phosphorylation and prevents its phosphorylation by EGF. Neonatal rat cardiomyocytes were treated with rPMT (400 ng/ml) for 24 hr (Panel A), 48 hr (Panel B) or with EGF (50 ng/ml) for 5 min. Cell lysates were subjected to SDS-PAGE followed by Western blotting with antibodies that recognize the phosphorylated form or total AKT. Data are from representative gels, with similar results obtained in 3 separate experiments.
Panel A: Cells were treated with norepinephrine (NE, 10 μM) or PMA (100 nM) for 5 min without or with GF109203 (5 μM).
Panel B: Cells were treated with rPMT (400 ng/ml), NE (10 μM) or PMA (100 nM) for 24 hr without or with Go6983 (5 μM). […] Cell lysates were subjected to SDS-PAGE followed by Western blotting using a specific anti-phospho-AKT antibody. Data are from representative gels, with similar results obtained in 3 separate culture preparations.
as §1

A further assay deals with p38-MAPK. Briefly: Phospho-p38 MAP kinase Western blot in cardiomyocytes. The format is cell-based, rat. The note with it: rPMT 24 hr; sorbitol 5 min positive control. The procedure:
(§2) rPMT promotes the activation of ERK1/2, JNK and p38-MAPK cascades. Incubations were for 24 hr in the presence of the indicated concentrations of rPMT. PMA (100 nM, 5 min) and sorbitol ([…], 5 min) were included as positive controls. Cell lysates were subjected to SDS-PAGE followed by Western blotting as described in Methods below. Phosphorylated forms of ERK1/2 (A), p38 MAP kinase (B) or JNK (C) were detected by specific anti-phospho-ERK1/2, -p38 MAP kinase or -JNK antibodies, respectively. Blots were stripped and subjected to immunoblot analysis with total ERK1/2 or p38 MAP kinase to normalize for minor variations in protein loading (Panels A and B). Top: representative autoradiograms (with each lane from a single gel exposed for the same duration). Bottom: quantification of each series of experiments (n=3).
(§3) Specific immunoreactivity for individual PKC isoforms was quantified according to methods described previously. […] Bands were detected by enhanced chemiluminescence and blots were quantified by laser scanning densitometry.

Another assay has as its system JNK. Briefly: Phospho-JNK Western blot in cardiomyocytes. The assay is classed as cell-based, rat. To be noted: rPMT 24 hr; sorbitol 5 min positive control. The procedure:
as §2, §3

A further assay deals with ERK1/2. Briefly: Phospho-ERK1/2 Western blot in cardiomyocytes. The assay is classed as cell-based, rat. To be noted: cardiomyocytes; for effect on ERK phosphorylation/activation by rPMT: rPMT 400 ng/ml 24 hr. On the procedure: as §2
(§4) rPMT transactivation of the EGF receptor in cardiac fibroblasts, but not cardiomyocytes. Neonatal rat cardiomyocytes (Panel A) and cardiac fibroblasts (Panel B) were treated with rPMT (400 ng/ml) for 24 hr or EGF (50 ng/ml) for 5 min without or with AG1478 (2 μM, starting 30 min prior to stimulation). Cell lysates were subjected to SDS-PAGE followed by Western blotting with the anti-phospho-ERK1/2 antibody. Data are from a representative gel, with similar results obtained in 3 separate experiments.
as §1, with “The supernatant was diluted in SDS-PAGE sample buffer, boiled for 5 min, and stored at −70° C. Western blot analysis was performed with antibodies that are selective for the phosphorylated (activated) forms of ERK1/2, p38-MAPK, JNK, AKT, and pan-PKC according to manufacturer's instructions. For each panel in each Figure, the results are from a single gel exposed for a uniform duration.” left out

For assay [1], the system named is ERK1/2 in cardiac fibroblasts. Briefly: Phospho-ERK1/2 Western blot in cardiac fibroblasts. The format is cell-based, rat. To be noted: AG1478 2 μM. On the procedure:
as §4
Cardiac myocytes were dissociated from the ventricles of two-day-old Wistar rats by a trypsin digestion protocol which incorporates a differential attachment procedure to enrich for cardiac myocytes, as described previously (13). For some experiments, attached cells were maintained as fibroblast cultures. For studies of inositol phosphates, MAPKs, AKT, and PKC cardiomyocytes were plated at a density of 5×10^5 cells per ml (2 ml per 35-mm dish; 1 ml per 22.1-mm dish) and were cultured in MEM supplemented with 10% fetal calf serum. […]
as §3

The test system of another assay is PKC isoforms. Briefly: Immunoblot of PKC isoform partitioning and down-regulation in cardiomyocytes. The format is cell-based, rat. The note with it: 24 hr experiments. On the procedure:
rPMT selectively activates nPKC isoforms. […] Soluble extracts were prepared and separated by SDS-PAGE followed by immunodetection of total PKC isoform abundance with antibodies that are specific for the individual PKC isoforms (Panel A), or phosphorylated forms of PKC (largely PKCε) with a pan-phospho-PKC antibody (Panels B and C), as described in Methods below. GF109203 was included at 5 μM 30 min prior to stimulation as indicated.
Cells were maintained in culture in the presence of 10% FCS for 96 hr and then switched to serum-free medium for 24 hr prior to the addition of agonists as indicated. For PKC, extracts were prepared and subjected to SDS-PAGE to resolve individual isoforms according to methods described previously (14).
as §3

`CCCCCCCCCCCCCC(=O)O[C@@H]1[C@@H](C)[C@@]2(O)[C@@H](C=C(CO)C[C@]3(O)C(=O)C(C)=C[C@@H]23)[C@@H]2C(C)(C)[C@]12OC(C)=O` [PMA, reference compound]: the “phospho-PKC immunoreactivity during pharmacologic down-regulation” value at PKC-ε (24 hrs) is “drastically reduced”. Moreover, the “PKC-ε phosphorylation/activation (phospho-PKC band pattern)” value at PKC-ε (NE 10 μM or PMA 100 nM for 5 min) is “slower mobility, more-highly phosphorylated species”. The “basal AKT phosphorylation after acute treatment” value in the assay with AKT (5 min, PMA 100 nM, NE 10 μM) is listed as “reduce basal AKT phosphorylation”. For the same molecule, the “basal AKT phosphorylation after 24 hr treatment” value in the assay on AKT (24 hr, relative to control cultures) is given as “reduced”.

On to `OC[C@@H](O)[C@@H](O)[C@H](O)[C@@H](O)CO` [sorbitol, reference compound], for which the “magnitude of p38-MAPK activation” value with p38-MAPK was “strong activation”. Also, the “magnitude of JNK activation” value in the assay on JNK is “strong activation”.

Consider EGF: epidermal growth factor, for which the “AKT activation in control cultures” value in the assay on AKT (EGF 50 ng/ml, 5 min) is “robust”.

Take `COc1cc2ncnc(Nc3cccc(Cl)c3)c2cc1OC` [AG1478, reference compound]: in the assay on ERK1/2 (AG1478 2 μM, EGF 50 ng/ml 5 min), the “effect on EGF receptor-mediated ERK phosphorylation” value was “effectively blocks”. In addition, the “effect on ERK phosphorylation/activation by rPMT” value in the assay on ERK1/2 is “only a very minor reduction”. In assay [1], the “effect on ERK activation by EGF” value is listed as “marked effect to prevent ERK activation” and the “effect on ERK activation by rPMT” value is reported as “marked effect to prevent ERK activation”.

Consider `CN(C)CCCn1cc(C2=C(c3c[nH]c4ccccc34)C(=O)NC2=O)c2ccccc21` [GF109203, reference compound], for which, in the assay with ERK1/2, the “effect on ERK phosphorylation/activation by rPMT” value is reported as “markedly inhibited”. Further, the “inhibition of PMA-dependent down-regulation of PKC isoforms” value in the assay on PKC isoforms is given as “did not”. For the same molecule, on PKC-ε (inhibitor 5 μM, 30 min prior to stimulation), the “effect on appearance of the more highly phosphorylated PKC-ε band induced by NE or PMA” value is on record as “prevented”. In the assay on AKT (GF109203 5 μM, 5 min PMA), the “effect on inhibitory modulation of AKT phosphorylation by PMA” value was “prevented”.

As for `COc1ccc2c(c1)c(C1=C(c3c[nH]c4ccccc34)C(=O)NC1=O)cn2CCCN(C)C` [Go6983, reference compound], in the assay with PKC isoforms, the “inhibition of PMA-dependent down-regulation of PKC isoforms” value was “completely inhibited”. The “effect on negative regulation of AKT by rPMT” value in the assay on AKT (Go6983 5 μM, 24 hr) is “abrogates”.
